Source: US9844595B2, “Composition comprising a complex of (+)-catechin and amino acid for the treatment and prevention of cancer” (VALORE, priority 2013, dated 2017)
Where “and” joins values, the source holds several entries; their conditions need not be identical. Equal entries are not always repeated. Where two headings read alike, the source gives them in different places.

Columns and labels:
[1] = for Δct measured between the IV and PO data, free (+)-catechin / Δct measured between the IV and PO data, total (+)-catechin: PO vs IV; for plasma concentration (cc) of the free monomeric (+)-catechin / plasma concentration (cc) of the total monomeric (+)-catechin: 25 mg/kg (+)-catechin equivalent
Protocol: The experimental results described below were obtained on the basis of a study carried out in healthy human beings and in healthy Wistar rats weighing approximately 250 grams.
An acclimation period was observed before beginning the experiments.
The rats received an administration per os of a volume of 5 ml of a solution of active product.
With regard to taking the blood samples from the rats and from the human beings, the blood was collected in tubes internally coated with EDTA and was then centrifuged at 3000 rpm (revolutions per minute) at ambient temperature for 45 min, and then for 15 min at a temperature of 4° C. The plasma was then collected and stored at −70° C. before analysis.
The analytical technique (LC-MS/MS for Liquid Chromatography coupled to tandem Mass Spectrometry) for measuring the active substance in the blood was based on the method described by Mata-Bilbao et al., published in 2007 in the Journal of Agricultural and Food Chemistry, volume 55, page 8857.
The free (+)-catechin was extracted from the plasma with a solution of phosphoric acid, EDTA and ascorbic acid and was then purified by SPE (solid phase extraction); in particular, it is an Oasis™ HLB extraction which is analyzed by LC-MS/MS. The quantification was carried out according to a standard calibration procedure with (+/−)-catechin-2,3,4-^13C3 as internal standard (SI).
The procedure is identical with regard to the extraction and the quantification of free quercetin or ECGC in the blood.
With regard to the extraction and quantification of the total (+)-catechin, the procedure is the same as that applied to the free (+)-catechin, with the exception of the fact that an additional step prior to the purification by SPE is carried out.
(§1) Each of the mixtures is then solubilized in water.
Each of the mixtures is solubilized in water.

[2] = assay type: in vivo, Wistar rats; settings: IV, rats; for plasma concentration (cc) of the free monomeric (+)-catechin / plasma concentration (cc) of the total monomeric (+)-catechin: 25 mg/kg (+)-catechin equivalent
Text: as §1

[3] = system: collagen of rat skin; test: Total incorporation and incorporation into collagen of 3H-proline in the skin; assay type: in vivo, Wistar rats; settings: for increase in the level of incorporation: 100 mg/kg by gavage, vs control subgroup
Protocol: To do this, a study was carried out in vivo on a batch of 24 female Wistar rats weighing from 95 to 115 g, divided into two groups C and D, each of 12 rats. For each group, the radioactive 3H-hydroxyproline, the specific activity of which is 13.6 Ci/10-3 mol, was administered to all the animals by intraperitoneal injection of 3H-proline at a dose, relative to the weight of the individuals, of 1 mCi/kg, which represents an activity in terms of radioactive 3H-proline of 100 μCi/individual.
6 rats of each group received a treatment based on monomeric (+)-catechin by gavage in a proportion of 100 mg/kg for 5 days before sacrifice. […] The group C received monomeric (+)-catechin hydrochlorolysinate, while the group D received monomeric (+)-catechin ascorbolysinate.
In table 8, the level of incorporation is measured by the number of disintegrations of the radioactive 3H-hydroxyproline per minute (dpm) per mg of dry weight. The higher this number, the higher the concentration of 3H-hydroxyproline.
In this comparative example, a group E of 12 Wistar rats weighing from 95 to 115 g, in which radioactive 3H-hydroxyproline, the specific activity of which is 13.6 Ci/10-3 mol, was administered to all the individuals by intraperitoneal injection of 3H-proline at a dose, relative to the weight of the individuals, of 1 mCi/kg, which represents an activity in terms of radioactive 3H-proline of 100 μCi/individual.
6 rats of each group received a treatment based on pure monomeric (+)-catechin by gavage in a proportion of 100 mg/kg for 5 days before sacrifice.

[4] = system: clear cell renal carcinoma; test: Treatment of a patient with renal adenocarcinoma; assay type: in vivo, human; settings: DT+19 months, reconfirmed DT+23 months; one patient, 500 mg per day orally, after nephrectomy, dissections and radiotherapy
Protocol: In the second patient, a left subclavicular cervical adenopathy was first of all detected on day Do. Next, 2 weeks later, a left renal adenocarcinoma was detected for this patient, which was followed by a nephrectomy of the left kidney 3 days after the detection of the adenocarcinoma in this kidney.
Thereafter, on day D0+3 months, a left cervical lymph node dissection is performed on the patient. This procedure was followed by a series of 15 radiotherapy sessions.
Starting from day D0+15 months (that is to say on day DT), the patient was orally administered a tablet of 500 mg of (+)-catechin hydrochlorolysinate per day.
On day DT+15 months, the appearance of a pathological mediastinal adenopathy (45 cm^3 in volume) was observed and required a mediastinal lymph node dissection followed by a pulmonary examination on day DT+17 months.

[5] = system: gastric mucosa; test: Incidence of gastric ulcers and histamine level in the gastric mucosa in Mastomys; assay type: in vivo
Protocol: In this example, a sample of n=48 Mastomys are sensitized a first time by intraperitoneal injection of 3 μg of ovalbumin dissolved in 0.2 ml of saline solution containing 1 mg of aluminum hydroxide which brings about anti-immunoglobulin E (IgE) and G (IgG) antibodies. After 7 days, a second injection of 1 mg of ovalbumin in 0.01 ml of saline solution is given in the gastric mucosa at the level of the corpus of the anesthetized animals, which causes an ulcerated lesion at the actual site of the injection.
The 48 rats are divided up into three groups: one of 24 and two of 12 individuals. The first group of 24 individuals (G1) received a placebo (concentrated NaCl solution at 0.15 M).
The histamine level is measured for the G1, G2 and G3 groups on the basis of a sample of n=12 individuals.

[6] = system: monoclonal immunoglobulins (IgM); test: Treatment of a patient with lymphoplasmocytic lymphoma (Waldenström macroglobulinemia type): IgM assay; assay type: in vivo, human; settings: one patient
Protocol: In the first patient a lymphoplasmocytic lymphoma (of Waldenström macroglobulinemia type) was detected during a post-operative blood test on day Do. The diagnosis is based on the electrophoretic detection of a monoclonal peak of immunoglobulins (IgM). This diagnosis was reconfirmed and the peak was assayed during a second analysis using the same detection by electrophoresis.
These immunoglobulins are found at a high concentration in the blood and in the urine. They therefore constitute real tumor markers. The assaying thereof gives an account of the number of sick cells and the extent of the disease and, consequently, makes it possible to monitor its progression under treatment.
Successive blood tests gave the following data for the IgM assay (in mg per 100 ml of plasma): […]

[7] = 25 mg/kg, rats, listed as C:Lys:HCl/1:2:2, 25 mg/kg
[8] = free (+)-catechin, rats, per os, dose equivalent to 25 mg/kg (+)-catechin, 5 Wistar rats, pulverulent mixture solubilized in water
[9] = G3, n = 12, 100 mg intraperitoneally
[10] = oral administration, vs placebo
[11] = treated, 100 mg/kg by gavage for 5 days, per mg of dry weight

O=C(O[C@@H]1Cc2c(O)cc(O)cc2O[C@@H]1c1cc(O)c(O)c(O)c1)c1cc(O)c(O)c(O)c1 [EGCG, epigallocatechin gallate, reference compound]
plasma levels measured (below the reliable limits of detection) ([1]; EGCG, rats, per os, dose equivalent to 25 mg/kg polyphenol): below 250 ng/ml

O=c1c(O)c(-c2ccc(O)c(O)c2)oc2cc(O)cc(O)c12 [QP, quercetin, reference compound]
Δct^q (difference of ct to QP, related back to QP) ([1]; Wistar, rat, in vivo, 25 mg/kg): 0%

Cl.Cl.NCCCCC(N)C(=O)O.NCCCCC(N)C(=O)O.Oc1cc(O)c2c(c1)O[C@H](c1ccc(O)c(O)c1)[C@@H](O)C2 [[C:Lys:HCl/1:2:2]]
total plasma concentration (ct) of the free monomeric (+)-catechin ([2]; 25 mg/kg): 87 970 ng min/ml | total plasma concentration (ct) of the total monomeric (+)-catechin ([2]; 25 mg/kg): 277 040 ng min/ml | plasma concentration (cc) of the free monomeric (+)-catechin ([2]; T 10 min): 3340 ng/mL | plasma concentration (cc) of the total monomeric (+)-catechin ([2]; T 10 min): 8066 ng/mL | plasma concentration (cc) of the free monomeric (+)-catechin ([2]; T 30 min): 991 ng/mL | plasma concentration (cc) of the total monomeric (+)-catechin ([2]; T 30 min): 2639 ng/mL | plasma concentration (cc) of the free monomeric (+)-catechin ([2]; T 60 min): 291 ng/mL | plasma concentration (cc) of the total monomeric (+)-catechin ([2]; T 60 min): 1191 ng/mL | plasma concentration (cc) of the free monomeric (+)-catechin ([2]; T 120 min): 0 ng/mL | plasma concentration (cc) of the total monomeric (+)-catechin ([2]; T 120 min, 25 mg/kg): 340 ng/mL and 338 ng/mL | plasma concentration (cc) of the free monomeric (+)-catechin ([2]; T 240 min): 0 ng/mL | plasma concentration (cc) of the total monomeric (+)-catechin ([2]; T 240 min): 0 ng/mL | Δct measured between the IV and PO data, free (+)-catechin ([1]; 25 mg/kg, rats, 25 mg/kg): 88% | Δct measured between the IV and PO data, total (+)-catechin ([1]; 25 mg/kg, rats, 25 mg/kg): 73% | Δct measured between the IV and PO data, free (+)-catechin [1, 7]: +88% | Δct measured between the IV and PO data, total (+)-catechin [1, 7]: +73% | total plasma concentration (ct) of the total monomeric (+)-catechin ([1]; PO, 25 mg/kg, rats): 479 585 ng min/ml | plasma concentration (cc) of the free monomeric (+)-catechin ([1]; PO, T 10 min, rats): 428 ng/mL | plasma concentration (cc) of the total monomeric (+)-catechin ([1]; PO, T 10 min, rats): 1839 ng/mL | plasma concentration (cc) of the free monomeric (+)-catechin ([1]; PO, T 30 min, rats): 1027 ng/mL | plasma concentration (cc) of the total monomeric (+)-catechin ([1]; PO, T 30 min, rats): 3780 ng/mL | plasma concentration (cc) of the free monomeric (+)-catechin ([1]; PO, T 60 min, rats): 1188 ng/mL | plasma concentration (cc) of the total monomeric (+)-catechin ([1]; PO, T 60 min, rats): 3190 ng/mL | plasma concentration (cc) of the free monomeric (+)-catechin ([1]; PO, T 120 min, rats): 767 ng/mL | plasma concentration (cc) of the total monomeric (+)-catechin ([1]; PO, T 120 min, rats): 1990 ng/mL | plasma concentration (cc) of the free monomeric (+)-catechin ([1]; PO, T 240 min, rats): 179 ng/mL | plasma concentration (cc) of the total monomeric (+)-catechin ([1]; PO, T 240 min, rats): 475 ng/mL | T (max) [1, 8]: 1 h | c (max) [1, 8]: 1200 ng/mL

Cl.Cl.Cl.NCCCCC(N)C(=O)O.NCCCCC(N)C(=O)O.NCCCCC(N)C(=O)O.Oc1cc(O)c2c(c1)O[C@H](c1ccc(O)c(O)c1)[C@@H](O)C2 [1:3:3, reference compound]
ct, calculated value ([1]; rat, in vivo, 25 mg/kg): 38 k ng min/ml

Cl.Cl.NCCCCC(N)C(=O)O.NCCCCC(N)C(=O)O.O=c1c(O)c(-c2ccc(O)c(O)c2)oc2cc(O)cc(O)c12 [[Q:Lys:HCl/1:2:2], reference compound]
Δct^q (difference of ct to QP, related back to QP) ([1]; rat, in vivo, 25 mg/kg): +18%

monomeric (+)-catechin ascorbolysinate
increase in the level of incorporation [3]: +14%

Cl.Cl.Cl.Cl.Cl.NCCCCC(N)C(=O)O.NCCCCC(N)C(=O)O.NCCCCC(N)C(=O)O.NCCCCC(N)C(=O)O.NCCCCC(N)C(=O)O.Oc1cc(O)c2c(c1)O[C@H](c1ccc(O)c(O)c1)[C@@H](O)C2.Oc1cc(O)c2c(c1)O[C@H](c1ccc(O)c(O)c1)[C@@H](O)C2 [1:2.5:2.5]
ct, value reported on the curve in FIG. 5 ([1]; rat, in vivo, 25 mg/kg): 105 k ng min/ml

Cl.Cl.Cl.Cl.Cl.NCCCCC(N)C(=O)O.NCCCCC(N)C(=O)O.NCCCCC(N)C(=O)O.NCCCCC(N)C(=O)O.NCCCCC(N)C(=O)O.Oc1cc(O)c2c(c1)O[C@H](c1ccc(O)c(O)c1)[C@@H](O)C2 [1:5:5, reference compound]
ct, calculated value ([1]; rat, in vivo, 25 mg/kg): 26 k ng min/ml

monomeric (+)-catechin hydrochlorolysinate [[C:Lys:HCl/1:1:1]]
status of the clear cell renal carcinoma (consultation report) [4]: complete remission | HL (histamine level in the gastric mucosa) ([5]; G2, n = 12, per os twice a day (2×300 mg)): 37.91 ± 3.73 10^−6 mg/kg of protein | NU (number of animals exhibiting a gastric ulcer) ([5]; G2, n = 12, per os twice a day (2×300 mg), two days before and three days after injection): 5 | HL (histamine level in the gastric mucosa) [5, 9]: 34.98 ± 3.52 10^−6 mg/kg of protein | NU (number of animals exhibiting a gastric ulcer) [5, 9]: 6 | decrease in the histamine level (HL) in the gastric mucosa [5, 10]: −18% | decrease in the number of animals exhibiting a gastric ulcer (NU) [5, 10]: −72% | increase in the level of incorporation [3]: +15% | level of incorporation into collagen (IC) of 3H-hydroxyproline in rat skin [3, 11]: 1343 ± 48 dpm/mg | level of total incorporation (IT) of 3H-hydroxyproline in rat skin [3, 11]: 6248 ± 124 dpm/mg | IgM level in the blood ([6]; DT + 4 months, tablet of 500 mg per day from day DT (IgM 2931 on DT)): 2417 mg/100 ml | IgM level in the blood ([6]; DT + 9 months, tablet of 500 mg per day from day DT): 2410 mg/100 ml | IgM level in the blood ([6]; DT + 15 months, tablet of 500 mg per day from day DT): 2412 mg/100 ml
